{"source": "patent US20240279298A1", "about": "(BEIJING TUO JIE BIOPHARMACEUTICAL CO. LTD., priority 2021, published 2024)", "key": {"[1]": {"molecular_target": "T1, human glucagon receptor (GCGR) (Homo sapiens, UniProt P47871)", "T1 construct": "expressed in transfected cells", "T1 sequence (P47871 26-477)": "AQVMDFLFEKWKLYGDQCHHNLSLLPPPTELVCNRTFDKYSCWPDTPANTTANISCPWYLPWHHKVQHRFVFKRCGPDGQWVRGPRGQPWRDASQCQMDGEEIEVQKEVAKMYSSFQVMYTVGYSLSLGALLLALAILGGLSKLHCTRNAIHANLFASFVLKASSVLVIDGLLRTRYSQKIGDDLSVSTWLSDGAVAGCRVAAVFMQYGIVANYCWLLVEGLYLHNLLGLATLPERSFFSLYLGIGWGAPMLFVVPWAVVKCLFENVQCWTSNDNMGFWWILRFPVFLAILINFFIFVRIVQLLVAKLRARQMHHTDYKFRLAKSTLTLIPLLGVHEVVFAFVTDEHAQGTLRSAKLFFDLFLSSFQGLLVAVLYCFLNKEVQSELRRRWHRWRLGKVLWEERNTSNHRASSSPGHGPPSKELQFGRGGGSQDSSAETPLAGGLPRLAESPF", "assay": "Agonist activity assay for GCGR (cAMP HTRF)", "format": "cell-based", "details": "normalized by the activity of the native glucagon", "method": "The activation of GCGR by related compounds will stimulate the formation of cyclic adenosine monophosphate (cAMP) in cells. Thus, the receptor activity can be monitored by cAMP production in proper cells expressing the receptor. […] The cells were passaged at least once for subsequent tests. Before testing, the cells were trypsinized, centrifuged, washed once, and resuspended in serum-free DMEM/F12 medium. The cell density was adjusted, and the cells were plated in a 96-well plate at a density of 2,500 cells/5 μL/well. […] The mixture was mixed well by moderate vibration, and incubated for 1 hour at room temperature away from light."}, "human GLP-1R": {"molecular_target": "T2, human GLP-1R (Homo sapiens, UniProt P43220)", "T2 construct": "expressed in transfected cells", "T2 sequence (P43220 24-463)": "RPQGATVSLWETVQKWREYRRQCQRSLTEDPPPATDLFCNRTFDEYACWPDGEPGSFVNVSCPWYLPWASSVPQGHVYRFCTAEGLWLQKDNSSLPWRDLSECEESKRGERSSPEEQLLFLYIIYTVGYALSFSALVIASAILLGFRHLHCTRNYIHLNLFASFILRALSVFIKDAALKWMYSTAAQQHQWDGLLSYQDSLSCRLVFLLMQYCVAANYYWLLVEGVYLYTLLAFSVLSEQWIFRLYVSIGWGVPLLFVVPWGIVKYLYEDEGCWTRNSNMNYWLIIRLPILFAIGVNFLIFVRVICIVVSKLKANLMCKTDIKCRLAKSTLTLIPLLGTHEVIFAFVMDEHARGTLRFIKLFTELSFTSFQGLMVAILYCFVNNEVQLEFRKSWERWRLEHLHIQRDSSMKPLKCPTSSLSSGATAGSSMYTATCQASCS", "assay": "Agonist activity assay for GLP-1R (cAMP HTRF)", "format": "cell-based", "method": "(§1) The activation of GCGR by related compounds will stimulate the formation of cyclic adenosine monophosphate (cAMP) in cells. Thus, the receptor activity can be monitored by cAMP production in proper cells expressing the receptor.\n(§2) Agonist activity assay for GCGR: Cryopreserved stable CHO-K1/GCGR/CRE-Luc cells were taken from a liquid nitrogen tank, thawed in a 37° C. water bath, resuspended in DMEM/F12 medium (Sigma Cat #D8437), centrifuged, and seeded into T75 culture flasks. The cells were passaged at least once for subsequent tests. Before testing, the cells were trypsinized, centrifuged, washed once, and resuspended in serum-free DMEM/F12 medium. The cell density was adjusted, and the cells were plated in a 96-well plate at a density of 2,500 cells/5 μL/well. A 1×buffer solution in Cisbio-cAMP-Gs Dynamic kit was prepared, and IBMX was added at a final concentration of 0.5 mM. 5 μL of polypeptide serially diluted by buffer was added into each well, and the plate was shaken gently for mixing and incubated for 30 minutes at 37° C. cAMP-d2 and Anti-cAMP-Eu^3+-Cryptate were 20-fold diluted with cAMP Lysis and detection buffer respectively and mixed well. 5 μL of diluted cAMP-d2 solution and 5 μL of diluted Anti-cAMP-Eu^3+-Cryptate solution were sequentially added into each well. The mixture was mixed well by moderate vibration, and incubated for 1 hour at room temperature away from light.\nAgonist activity assay for GLP-1R: The method differed from the method described above for the agonist activity assay for GCGR in that a stable CHO-GLP-1R cell line was used."}, "[2]": {"test_system": "normal rats (blood glucose)", "assay": "Efficacy in normoglycemic rat model", "format": "in vivo, SD rats", "details": "for Blood glucose 15 min / Blood glucose 30 min / Blood glucose 45 min / Blood glucose 60 min: normal rats; for Hyperglycemic efficacy (in words): normoglycemic rats, subcutaneous", "protocol": "Male SD rats (Sprague-Dawley rats) aged 7-8 weeks were acclimatized for one week. […] The animals were deprived of food 4 hours before and during the experiment, but were provided with free access to water."}, "[3]": {"assay": "Chemical stability in phosphate buffer (UPLC purity)", "format": "physicochemical", "protocol": "The compound purity was calculated by the percentage area of the main peak in the chromatograms relative to the total area of all integrated peaks, normalized by the purity of the sample on day 0 for the purity."}, "human GIPR": {"molecular_target": "T3, human GIPR (Homo sapiens, UniProt P48546)", "T3 construct": "expressed in transfected cells", "T3 sequence (P48546 22-466)": "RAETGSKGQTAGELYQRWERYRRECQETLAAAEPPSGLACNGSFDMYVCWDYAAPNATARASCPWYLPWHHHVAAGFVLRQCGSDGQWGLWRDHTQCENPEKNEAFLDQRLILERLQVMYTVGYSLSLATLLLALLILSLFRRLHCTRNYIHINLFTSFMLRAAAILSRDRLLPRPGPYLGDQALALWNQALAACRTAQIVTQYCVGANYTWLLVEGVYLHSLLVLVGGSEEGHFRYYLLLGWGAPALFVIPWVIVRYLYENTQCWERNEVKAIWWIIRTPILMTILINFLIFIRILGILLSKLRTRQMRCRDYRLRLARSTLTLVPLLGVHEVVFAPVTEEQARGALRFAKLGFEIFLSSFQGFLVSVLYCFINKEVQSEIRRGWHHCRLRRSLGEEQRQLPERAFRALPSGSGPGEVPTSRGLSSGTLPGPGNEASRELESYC", "assay": "Agonist activity assay for GIPR (cAMP HTRF)", "format": "cell-based", "method": "as §1, §2\nAgonist activity assay for GIPR: The method differed from the method described above for the agonist activity assay for GCGR in that a stable CHO-K1/GIPR cell line was used, and the cell density was 3,000 cells/5 μL/well."}, "[4]": {"test_system": "insulin-induced hypoglycemia rat model", "assay": "Efficacy in insulin-induced hypoglycemic rat model", "format": "in vivo, SD rats", "details": "for Blood glucose 60 min / Blood glucose 75 min / Blood glucose 90 min / Blood glucose 105 min: insulin 0.65 IU/kg at T0", "protocol": "Male SD rats (Sprague-Dawley rats) aged 7-8 weeks were acclimatized for one week. […] The animals were deprived of food 4 hours before and during the experiment, but were provided with free access to water. After 4 hours of fasting, the blood glucose level at TO point was determined by tail blood sampling. The modeling groups were immediately administered with 0.65 IU/kg of insulin subcutaneously, and the non-modeling groups were administered with the same volume of normal saline subcutaneously."}, "[5]": {"details": "human, microsomes, 0.25 h, 1 μM"}, "[6]": {"details": "0.5 nmol/kg subcutaneous single dose"}, "[7]": {"details": "2 nmol/kg subcutaneous single dose"}, "[8]": {"details": "6 nmol/kg subcutaneous single dose"}, "[9]": {"details": "4° C., phosphate buffer pH 7.4, 1 mg/mL"}, "[10]": {"details": "25° C., phosphate buffer pH 7.4, 1 mg/mL"}, "[11]": {"details": "6 nmol/kg subcutaneous at 45 min"}, "[12]": {"details": "12 nmol/kg subcutaneous at 45 min"}, "[13]": {"details": "20 nmol/kg subcutaneous at 45 min"}}, "note": "Where a SMILES comes first, the peptide text is derived from it. [ ]: non-standard residue; d: D form. Aib = CC(C)(N)C(=O)O"}
{"smiles": "CC(C)C[C@H](NC(=O)[C@H](Cc1ccc(O)cc1)NC(=O)[C@H](CCCCN)NC(=O)[C@H](CO)NC(=O)[C@H](Cc1ccc(O)cc1)NC(=O)[C@H](CC(=O)O)NC(=O)[C@H](CO)NC(=O)[C@@H](NC(=O)[C@H](Cc1ccccc1)NC(=O)[C@@H](NC(=O)CNC(=O)[C@H](CCC(N)=O)NC(=O)[C@H](CO)NC(=O)[C@@H](N)Cc1c[nH]cn1)[C@@H](C)O)[C@@H](C)O)C(=O)N[C@@H](CC(=O)O)C(=O)N[C@@H](CC(C)C)C(=O)NC(C)(C)C(=O)N[C@@H](CCCNC(=N)N)C(=O)N[C@@H](C)C(=O)N[C@@H](CCC(N)=O)C(=O)N[C@@H](CCC(=O)O)C(=O)N[C@@H](Cc1ccccc1)C(=O)N[C@H](C(=O)N[C@@H](CCC(N)=O)C(=O)N[C@@H](Cc1c[nH]c2ccccc12)C(=O)N[C@@H](CC(C)C)C(=O)N[C@@H](CCC(=O)O)C(=O)N[C@@H](CO)C(=O)N[C@H](C(=O)O)[C@@H](C)O)C(C)C", "note": "[Compound 40] (H-HSQGTFTSDYSKYLDL[Aib]RAQEFVQWLEST-OH)", "values": [{"measurement": "Percentage residues 0 min", "setting": "human kidney microsomes", "result": 100.0, "unit": "%"}, {"measurement": "Percentage residues 60 min", "setting": "human kidney microsomes", "result": 25.16, "unit": "%"}, {"measurement": "T½", "setting": "human kidney microsomes; human, microsomes, 1 μM", "result": 0.6365, "unit": "h"}, {"measurement": "Percentage residues 15 min", "setting": "human kidney microsomes; [5]", "result": 63.34, "unit": "%"}, {"measurement": "Percentage residues 30 min", "setting": "human kidney microsomes; human, microsomes, 0.5 h, 1 μM", "result": 45.04, "unit": "%"}, {"measurement": "Percentage residues 120 min", "setting": "human kidney microsomes; human, microsomes, 2 h, 1 μM", "result": 10.61, "unit": "%"}, {"measurement": "Relative activity", "setting": "[1]", "result": 318, "unit": "%"}, {"measurement": "GLP-1R % Activity relative to native GLP-1", "setting": "human GLP-1R", "result": 0.192, "unit": "%"}, {"measurement": "Blood glucose 15 min", "setting": "[2]; [6]", "result": 9.45, "unit": "mmol/L"}, {"measurement": "Blood glucose 30 min", "setting": "[2]; [6]", "result": 8.55, "unit": "mmol/L"}, {"measurement": "Blood glucose 45 min", "setting": "[2]; [6]", "result": 6.93, "unit": "mmol/L"}, {"measurement": "Blood glucose 60 min", "setting": "[2]; [6]", "result": 6.10, "unit": "mmol/L"}, {"measurement": "Blood glucose 15 min", "setting": "[2]; [7]", "result": 8.60, "unit": "mmol/L"}, {"measurement": "Blood glucose 30 min", "setting": "[2]; [7]", "result": 9.52, "unit": "mmol/L"}, {"measurement": "Blood glucose 45 min", "setting": "[2]; [7]", "result": 8.35, "unit": "mmol/L"}, {"measurement": "Blood glucose 60 min", "setting": "[2]; [7]", "result": 6.40, "unit": "mmol/L"}, {"measurement": "Blood glucose 15 min", "setting": "[2]; [8]", "result": 9.63, "unit": "mmol/L"}, {"measurement": "Blood glucose 30 min", "setting": "[2]; [8]", "result": 10.22, "unit": "mmol/L"}, {"measurement": "Blood glucose 45 min", "setting": "[2]; [8]", "result": 8.83, "unit": "mmol/L"}, {"measurement": "Blood glucose 60 min", "setting": "[2]; [8]", "result": 7.10, "unit": "mmol/L"}, {"measurement": "Hyperglycemic efficacy (in words)", "setting": "[2]; listed as Glucagon analog 40", "result": "raised the blood glucose level in rats in a dose-dependent manner"}, {"measurement": "Hyperglycemic efficacy (in words)", "setting": "[2]; listed as glucagon analog 40", "result": "significantly better than that of Dasiglucagon"}, {"measurement": "Percentage residues 0 min", "setting": "human liver microsomes", "result": 100.0, "unit": "%"}, {"measurement": "T½", "setting": "human liver microsomes; human, microsomes, 1 μM", "result": 2.0895, "unit": "h"}, {"measurement": "Percentage residues 15 min", "setting": "human liver microsomes; [5]", "result": 100.5, "unit": "%"}, {"measurement": "Percentage residues 30 min", "setting": "human liver microsomes; human, microsomes, 0.5 h, 1 μM", "result": 89.85, "unit": "%"}, {"measurement": "Percentage residues 60 min", "setting": "human liver microsomes; human, microsomes, 1 h, 1 μM", "result": 66.96, "unit": "%"}, {"measurement": "Percentage residues 120 min", "setting": "human liver microsomes; human, microsomes, 2 h, 1 μM", "result": 41.48, "unit": "%"}, {"measurement": "Chemical stability in phosphate buffers (in words)", "setting": "[3]", "result": "better chemical stability in phosphate buffers than that of Dasiglucagon"}, {"measurement": "Purity Day 7", "setting": "[3]; [9]", "result": 99.40, "unit": "%"}, {"measurement": "Purity Day 14", "setting": "[3]; [9]", "result": 99.87, "unit": "%"}, {"measurement": "Purity Day 21", "setting": "[3]; [9]", "result": 100.27, "unit": "%"}, {"measurement": "Purity Day 28", "setting": "[3]; [9]", "result": 100.59, "unit": "%"}, {"measurement": "Purity Day 7", "setting": "[3]; [10]", "result": 99.70, "unit": "%"}, {"measurement": "Purity Day 14", "setting": "[3]; [10]", "result": 99.54, "unit": "%"}, {"measurement": "Purity Day 21", "setting": "[3]; [10]", "result": 97.63, "unit": "%"}, {"measurement": "Purity Day 28", "setting": "[3]; [10]", "result": 97.90, "unit": "%"}, {"measurement": "Purity Day 0", "setting": "[3]; phosphate buffer pH 7.4, 1 mg/mL, day 0 (normalization)", "result": 100.00, "unit": "%"}, {"measurement": "EC50", "setting": "human GIPR; CHO-K1/GIPR cell line, cAMP", "result": "> 0.1", "unit": "µM"}, {"measurement": "GIPR % Activity relative to native GIP", "setting": "human GIPR; relative to native GIP", "result": "<0.0700", "unit": "%"}, {"measurement": "Blood glucose 60 min", "setting": "[4]; [11]", "result": 6.65, "unit": "mmol/L"}, {"measurement": "Blood glucose 75 min", "setting": "[4]; [11]", "result": 9.05, "unit": "mmol/L"}, {"measurement": "Blood glucose 90 min", "setting": "[4]; [11]", "result": 7.08, "unit": "mmol/L"}, {"measurement": "Blood glucose 105 min", "setting": "[4]; [11]", "result": 6.99, "unit": "mmol/L"}, {"measurement": "Blood glucose 60 min", "setting": "[4]; [12]", "result": 7.40, "unit": "mmol/L"}, {"measurement": "Blood glucose 75 min", "setting": "[4]; [12]", "result": 9.50, "unit": "mmol/L"}, {"measurement": "Blood glucose 90 min", "setting": "[4]; [12]", "result": 9.13, "unit": "mmol/L"}, {"measurement": "Blood glucose 105 min", "setting": "[4]; [12]", "result": 8.63, "unit": "mmol/L"}, {"measurement": "Blood glucose 60 min", "setting": "[4]; [13]", "result": 6.87, "unit": "mmol/L"}, {"measurement": "Blood glucose 75 min", "setting": "[4]; [13]", "result": 9.68, "unit": "mmol/L"}, {"measurement": "Blood glucose 90 min", "setting": "[4]; [13]", "result": 9.28, "unit": "mmol/L"}, {"measurement": "Blood glucose 105 min", "setting": "[4]; [13]", "result": 9.00, "unit": "mmol/L"}, {"measurement": "Effect on raising blood glucose level (in words)", "setting": "[4]; same dose (12 nmol/kg)", "result": "significantly better than that of Dasiglucagon and lasts longer"}]}
